# Data from patent publication US8492559B2, “Substituted indole compounds” (Gruenenthal GmbH, priority 2009, dated 2013).
# Target: T1, B1R receptor of the rat (rB1R) (Rattus norvegicus, UniProt P97583)
# T1 construct: expressed in transfected cells; host or cells: CHO K1 cells
# T1 sequence (P97583 1-337): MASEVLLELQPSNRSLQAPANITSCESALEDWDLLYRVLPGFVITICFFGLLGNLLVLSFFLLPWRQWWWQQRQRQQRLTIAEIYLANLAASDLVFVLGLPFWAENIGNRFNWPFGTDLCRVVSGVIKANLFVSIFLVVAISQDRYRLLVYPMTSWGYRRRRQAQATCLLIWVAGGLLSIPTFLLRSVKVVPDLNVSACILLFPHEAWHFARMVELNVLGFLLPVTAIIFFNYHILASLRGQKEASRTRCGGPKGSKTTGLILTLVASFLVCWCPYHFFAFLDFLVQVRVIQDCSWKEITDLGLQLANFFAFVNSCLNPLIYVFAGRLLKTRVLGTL
# Assay: Functional investigation on the bradykinin 1 receptor (B1R), FLIPR Ca2+ assay, rB1R cells
# Type: cell-based
# Conditions: CHO-K1, 10 μM test substance; CHO K1 cells with rat B1R; agonist Des-Arg9 bradykinin; % of maximum achievable inhibition; read-out: B1R antagonism, rat [10 μM] % inhibition
# Experimental: The indication in % activation is based on the Ca^2+ signal after addition of Lys-Des-[…] bradykinin (0.5 nM) or Des-[…] bradykinin (100 nM). Antagonists lead to a suppression of the Ca^2+ influx following administration of the agonist. The % inhibition in comparison with the maximum achievable inhibition is indicated. […] According to this assay, the Ca^2+ inflow through the channel is quantified with the aid of a Ca^2+-sensitive dye (Fluo-4 type, Molecular Probes Europe BV, Leiden, Netherlands) in a fluorescent imaging plate reader (FLIPR, Molecular Devices, Sunnyvale, USA). […] For functional investigations these cells are plated-out onto black 96-well plates with a clear base (BD Biosciences, Heidelberg, Germany or Greiner, Frickenhausen, Germany) in a density of 20,000-35,000 cells/well. Overnight the cells are incubated at 37° C. and 5% CO2 in culture medium (hB1R cells: Ham's Nutrient Mixture F12, Gibco Invitrogen GmbH, Karlsruhe, Germany or DMEM, Sigma-Aldrich, Taufkirchen, Germany; rB1R cells: D-MEM/F12, Gibco Invitrogen, Karlsruhe, Germany) with 10 vol. % FBS (foetal bovine serum, Gibco Invitrogen GmbH, Karlsruhe, Germany or PAN Biotech GmbH, Aidenbach, Germany). On the following day the cells are loaded with 2.13 μM Fluo-4 (Molecular Probes Europe BV, Leiden, Netherlands) in HBSS buffer (Hank's buffered saline solution, Gibco Invitrogen GmbH, Karlsruhe, Germany) with 2.5 mM probenecid (Sigma-Aldrich, Taufkirchen, Germany) and 10 mM HEPES (Sigma-Aldrich, Taufkirchen, Germany) for 60 min at 37° C. […] Sigma-Aldrich, Taufkirchen, Germany), 5.6 mM glucose and 0.05% gelatine (Merck KGaA, Darmstadt, Germany) is added. After a further incubation of 20 minutes at room temperature, the plates are inserted into the FLIPR for Ca^2+ measurement. Alternatively they are washed with buffer A (15 mM HEPES, 80 mM NaCl, 5 mM KCl, 1.2 mM CaCl2, 0.7 mM MgSO4, 2 g/l glucose, 2.5 mM probenecid) and loaded with buffer A with added 2.5 μM Fluo-4 and 0.025% Pluronic F127 (Sigma-Aldrich, Taufkirchen, Germany). The cells are then washed twice with buffer A and incubated for 30 minutes with buffer A, which additionally contains 0.05% BSA and 0.05% gelatine, at room temperature and then used for Ca^2+ measurement in the FLIPR. The Ca^2+-dependent fluorescence is measured here before and after addition of substances (λex=488 nm, λem=540 nm). The quantification is performed by measuring the highest fluorescence intensity (FC, fluorescence counts) over time. The FLIPR protocol comprises two additions of substance. […] Lys-Des-[…] bradykinin>=50 nM; rB1R: […] Antagonists lead to a suppression of the Ca^2+ inflow. The % inhibition in comparison with the maximum achievable inhibition is calculated. The substances are added in varying concentrations in order to determine the IC50 value. Double or triple determinations (n=2 or n=3) are performed and these are repeated in at least one further independent experiment (N>=2).
row,SMILES,inhibition at 10 µM
1,"COc1cc(C)c(S(=O)(=O)Nc2cccc3ccn(CCC(=O)N4CCN(CCCN(C)C)CC4)c23)c(C)c1 [G_CC-44, N-[1-[3-[4-(3-Dimethylamino-propyl)-piperazin-1-yl]-3-oxo-propyl]-1H-indol-7-yl]-4-methoxy-2,6-dimethyl-benzenesulfonic acid amide]",73%
2,"COc1cc(C)c(S(=O)(=O)Nc2cccc3ccn(CCC(=O)N4CCC(O)(c5ccccn5)CC4)c23)c(C)c1 [G_CC-45, N-[1-[3-(4-Hydroxy-4-pyridin-2-yl-piperidin-1-yl)-3-oxo-propyl]-1H-indol-7-yl]-4-methoxy-2,6-dimethyl-benzenesulfonic acid amide]",59%
3,"COc1cc(C)c(S(=O)(=O)Nc2cccc3ccn(CCC(=O)N(C)CCCN4CCC(c5cccs5)(N(C)C)CC4)c23)c(C)c1 [G_CC-46, N-[3-(4-Dimethylamino-4-thiophen-2-yl-piperidin-1-yl)-propyl]-3-[7-[[(4-methoxy-2,6-dimethyl-phenyl)sulfonyl]amino]-1H-indol-1-yl]-N-methyl-propionamide]",94%
4,"COc1cc(C)c(S(=O)(=O)Nc2cccc3ccn(CCC(=O)N4CCC(c5ccccc5)(N(C)C)CC4)c23)c(C)c1 [G_CC-48, N-[1-[3-(4-Dimethylamino-4-phenyl-piperidin-1-yl)-3-oxo-propyl]-1H-indol-7-yl]-4-methoxy-2,6-dimethyl-benzenesulfonic acid amide]",59%
5,"COc1cc(C)c(S(=O)(=O)Nc2cccc3ccn(CCC(=O)N(C)CCCN4CCC(c5ccccc5)(N(C)C)CC4)c23)c(C)c1 [G_CC-49, N-[3-(4-Dimethylamino-4-phenyl-piperidin-1-yl)-propyl]-3-[7-[[(4-methoxy-2,6-dimethyl-phenyl)sulfonyl]amino]-1H-indol-1-yl]-N-methyl-propionamide]",92%
6,"COc1cc(C)c(S(=O)(=O)Nc2cccc3ccn(CCC(=O)NC4CCC(c5ccccc5)(N5CCC5)CC4)c23)c(C)c1 (stereo not drawn) [G_CC-50, N-[4-(Azetidin-1-yl)-4-phenyl-cyclohexyl]-3-[7-[[(4-methoxy-2,6-dimethyl-phenyl)sulfonyl]amino]-1H-indol-1-yl]-propionamide]",62%
7,"COc1cc(C)c(S(=O)(=O)Nc2cccc3ccn(CCC(=O)NCCN4CCC(c5cccs5)(N(C)C)CC4)c23)c(C)c1 [G_CC-51, N-[2-(4-Dimethylamino-4-thiophen-2-yl-piperidin-1-yl)-ethyl]-3-[7-[[(4-methoxy-2,6-dimethyl-phenyl)sulfonyl]amino]-1H-indol-1-yl]-propionamide]",93%
8,"O=C(CCn1ccc2cccc(NS(=O)(=O)c3ccccc3C(F)(F)F)c21)N1CCC2(CC1)CCN(c1ccncc1)CC2 [G_CC-52, N-[1-[3-Oxo-3-(3-pyridin-4-yl-3,9-diazaspiro[5.5]undecan-9-yl)-propyl]-1H-indol-7-yl]-2-(trifluoromethyl)-benzenesulfonic acid amide]",100%
9,"O=C(Cn1ccc2cccc(NS(=O)(=O)c3ccccc3C(F)(F)F)c21)N1CCC2(CC1)CCN(c1ccncc1)CC2 [G_CC-53, N-[1-[2-Oxo-2-(3-pyridin-4-yl-3,9-diazaspiro[5.5]undecan-9-yl)-ethyl]-1H-indol-7-yl]-2-(trifluoromethyl)-benzenesulfonic acid amide]",101%
10,"CCN1CCN(CCCNC(=O)CCn2ccc3cccc(NS(=O)(=O)c4c(C)cc(OC)cc4C)c32)CC1 [G_CC-56, N-[3-(4-Ethyl-piperazin-1-yl)-propyl]-3-[7-[[(4-methoxy-2,6-dimethyl-phenyl)sulfonyl]amino]-1H-indol-1-yl]-propionamide]",54%
11,"COc1cc(C)c(S(=O)(=O)Nc2ccc3ccn(CC(=O)N4CCC(OCCN5CCCC5)(c5cccnc5)CC4)c3c2)c(C)c1 [G_CC-57, 4-Methoxy-2,6-dimethyl-N-[1-[2-oxo-2-[4-pyridin-3-yl-4-(2-pyrrolidin-1-yl-ethoxy)-piperidin-1-yl]-ethyl]-1H-indol-6-yl]-benzenesulfonic acid amide]",100%
12,"Cc1cc(S(=O)(=O)Nc2cccc3ccn(CCC(=O)N4CCN(C5CCN(C)CC5)CC4)c23)c(C)cc1Cl [G_CC-59, 4-Chloro-2,5-dimethyl-N-[1-[3-[4-(1-methyl-piperidin-4-yl)-piperazin-1-yl]-3-oxo-propyl]-1H-indol-7-yl]-benzenesulfonic acid amide]",87%
13,"Cc1cc(S(=O)(=O)Nc2cccc3ccn(CCC(=O)N4CCC(CCN5CCCC5)CC4)c23)c(C)cc1Cl [G_CC-60, 4-Chloro-2,5-dimethyl-N-[1-[3-oxo-3-[4-(2-pyrrolidin-1-yl-ethyl)-piperidin-1-yl]-propyl]-1H-indol-7-yl]-benzenesulfonic acid amide]",87%
14,"Cc1cc(S(=O)(=O)Nc2cccc3ccn(CCC(=O)N4CCC(N5CCN(C)CC5)CC4)c23)c(C)cc1Cl [G_CC-61, 4-Chloro-2,5-dimethyl-N-[1-[3-[4-(4-methyl-piperazin-1-yl)-piperidin-1-yl]-3-oxo-propyl]-1H-indol-7-yl]-benzenesulfonic acid amide]",79%
15,"O=C(CCn1ccc2ccc(N3Cc4cccc(Cl)c4C3=O)cc21)N1CCN(c2ccncc2)CC1 [G_CC-63, 7-Chloro-2-[1-[3-oxo-3-(4-pyridin-4-yl-piperazin-1-yl)-propyl]-1H-indol-6-yl]-2,3-dihydro-isoindol-1-one]",100%
16,"CN1CCC(CN2CCN(C(=O)CCn3ccc4ccc(N5Cc6cccc(Cl)c6C5=O)cc43)CC2)CC1 [G_CC-64, 7-Chloro-2-[1-[3-[4-[(1-methyl-piperidin-4-yl)-methyl]-piperazin-1-yl]-3-oxo-propyl]-1H-indol-6-yl]-2,3-dihydro-isoindol-1-one]",89%
17,"Cc1cc(S(=O)(=O)Nc2ccc3ccn(CCC(=O)N4CCC5(CC4)CCN(c4ccncc4)CC5)c3c2)c(C)cc1Cl [G_CC-65, 4-Chloro-2,5-dimethyl-N-[1-[3-oxo-3-(3-pyridin-4-yl-3,9-diazaspiro[5.5]undecan-9-yl)-propyl]-1H-indol-6-yl]-benzenesulfonic acid amide]",53%
18,"O=C(CCn1ccc2ccc(N3Cc4cccc(Cl)c4C3=O)cc21)N1CCC2(CC1)CCN(Cc1ccc(F)cc1)C2=O [G_CC-66, 8-[3-[6-(4-Chloro-3-oxo-1,2-dihydro-isoindol-2-yl)-1H-indol-1-yl]-propanoyl]-3-[(4-fluorophenyl)-methyl]-3,8-diazaspiro[4.5]decan-4-one]",52%
19,"O=C(CCn1ccc2ccc(N3Cc4cccc(Cl)c4C3=O)cc21)N1CCC(Oc2ccncc2)CC1 [G_CC-68, 7-Chloro-2-[1-[3-oxo-3-(4-pyridin-4-yloxy-piperidin-1-yl)-propyl]-1H-indol-6-yl]-2,3-dihydro-isoindol-1-one]",69%
20,"O=C(CCn1ccc2ccc(N3Cc4cccc(Cl)c4C3=O)cc21)N1CCC(O)(c2cccnc2)CC1 [G_CC-69, 7-Chloro-2-[1-[3-(4-hydroxy-4-pyridin-3-yl-piperidin-1-yl)-3-oxo-propyl]-1H-indol-6-yl]-2,3-dihydro-isoindol-1-one]",65%
21,"Cc1cc(S(=O)(=O)Nc2cccc3ccn(CCC(=O)NCCC4CCN(c5ccncc5)CC4)c23)c(C)cc1Cl [G_CC-70, 3-[7-[[(4-Chloro-2,5-dimethyl-phenyl)sulfonyl]amino]-1H-indol-1-yl]-N-[2-(1-pyridin-4-yl-piperidin-4-yl)-ethyl]-propionamide]",100%
